Key:
human ATM = human ATM (Homo sapiens (Human), UniProt Q13315); experiment: Enzymatic ATM assay (RBC FRET enzyme assay); assay type: biochemical; conditions: substrate p53, 5-point dilution starting at 10 μM
Experimental: The inhibitory activity on the isolated ATM kinase was determined by a commercial supplier (Reaction Biology Corp., PA, US) using an activity based FRET assay. Compounds were therefore first pre-incubated with human ATM before substrate (p53) and ATP were added to initiate the phosphorylation reaction. After a given time, the kinase reaction was stopped and the amount of phosphorylated substrate was quantified using standard FRET detection methods. […] Detailed assay conditions and parameters can be requested from the commercial supplier.

[1] = system: kras^G12D; mycOE; p53^−/− murine pancreatic cancer cells (KMP53); experiment: KMP53 cell assay (XTT cell viability with Etoposide); assay type: cell-based; conditions: Mus musculus, 4 h pre-treatment, then 300 nM Etoposide, 46 h
Excerpt: (§1) A selection of compounds was screened in a cellular assay system in two different cancer cell lines. Therefore, the cells were challenged with a generally non-cytotoxic concentration of Etoposid to induce DNA double strand breaks and the activation of the ATM pathway. The cells were further treated with different concentrations of the final compounds and viability of the cells was quantified using a standard XTT cell viability protocol. The principle of this assay lies in the fact that only alive and thus metabolically active cells are able to catalyze the reduction of XTT ((2,3-bis-(2-methoxy-4-nitro-5-sulfophenyl)-2H-tetrazolium-5-carboxanilide) by NADH from mitochondria, into formazan. The formazan product can be then detected using an absorbance-based microplate reader. The absorbance intensity measured in each well correlates to cell viability.
(§2) In brief, kras^G12D; mycOE; p53^−/− murine pancreatic cancer cells (KMP53) and Panc-1 human pancreatic ductal carcinoma cells were seeded in 96-well plates and left to attach overnight. The following day, cells were treated with serial dilutions of compound or DMSO in triplicates. The cells were first pre-treated for 4 hours with inhibitor and then 300 nM of Etoposide was added to each well. Cells were then grown under normal conditions (37° C., 95% air, 5% CO2) for 46 h. Following the incubation period, XTT solution was added to the cells containing 1 mg/ml XTT and 25 μM phenazine methosulfate (PMS) diluted in full culture medium. Cells were incubated in normal conditions for two more hours. For the determination of cell viability, absorbance at 450 nm was measured for each well. Absorbance values were then normalized to DMSO control and expressed as percentages of viability. Using software GraphPad Prism, the values were fitted in a nonlinear response curve and the IC50 values were calculated.

[2] = system: Panc-1 human pancreatic ductal carcinoma cells; experiment: Panc1 cell assay (XTT cell viability with Etoposide); assay type: cell-based; conditions: 4 h pre-treatment, then 300 nM Etoposide, 46 h
Excerpt: as §1, §2

Solubility in DMSO = assay type: physicochemical; conditions: organic solvent or mixture, free base
Experimental: In a screw-top reaction vial, 41 mg (25) (0.1 mmol) and 1 mg tBu3P Pd G3 (1.5 mol %) were suspended in 2.4 ml degassed dioxane under argon atmosphere. Subsequently were added 40 mg (27) (0.14 mmol) as solution in dioxane and 0.6 ml of an aqueous 0.5M K3PO4 solution (0.3 mmol) via syringe. The reaction vial was sealed and heated to 50° C. heating block temperature for about 2 hours. TLC indicated complete conversion at that point and the reaction was quenched by dilution with EtOAc and brine. The phases were separated and the aqueous phase was further extracted with EtOAc (3×15 ml) and subsequently with DCM (4×15 ml). The combined extracts were washed with brine, dried and evaporated. The residue was purified via flash chromatography (DCM/MeOH+2N NH3 2-10%) to obtain 36 mg (74%) of the title substance as white solid. […] Therefore, it was converted to the HCl salt by dissolution in DCM/MeOH, acidification with HCl in EtOH and subsequent concentration of the solution. […]

Sequence of human ATM (Q13315 whole entry): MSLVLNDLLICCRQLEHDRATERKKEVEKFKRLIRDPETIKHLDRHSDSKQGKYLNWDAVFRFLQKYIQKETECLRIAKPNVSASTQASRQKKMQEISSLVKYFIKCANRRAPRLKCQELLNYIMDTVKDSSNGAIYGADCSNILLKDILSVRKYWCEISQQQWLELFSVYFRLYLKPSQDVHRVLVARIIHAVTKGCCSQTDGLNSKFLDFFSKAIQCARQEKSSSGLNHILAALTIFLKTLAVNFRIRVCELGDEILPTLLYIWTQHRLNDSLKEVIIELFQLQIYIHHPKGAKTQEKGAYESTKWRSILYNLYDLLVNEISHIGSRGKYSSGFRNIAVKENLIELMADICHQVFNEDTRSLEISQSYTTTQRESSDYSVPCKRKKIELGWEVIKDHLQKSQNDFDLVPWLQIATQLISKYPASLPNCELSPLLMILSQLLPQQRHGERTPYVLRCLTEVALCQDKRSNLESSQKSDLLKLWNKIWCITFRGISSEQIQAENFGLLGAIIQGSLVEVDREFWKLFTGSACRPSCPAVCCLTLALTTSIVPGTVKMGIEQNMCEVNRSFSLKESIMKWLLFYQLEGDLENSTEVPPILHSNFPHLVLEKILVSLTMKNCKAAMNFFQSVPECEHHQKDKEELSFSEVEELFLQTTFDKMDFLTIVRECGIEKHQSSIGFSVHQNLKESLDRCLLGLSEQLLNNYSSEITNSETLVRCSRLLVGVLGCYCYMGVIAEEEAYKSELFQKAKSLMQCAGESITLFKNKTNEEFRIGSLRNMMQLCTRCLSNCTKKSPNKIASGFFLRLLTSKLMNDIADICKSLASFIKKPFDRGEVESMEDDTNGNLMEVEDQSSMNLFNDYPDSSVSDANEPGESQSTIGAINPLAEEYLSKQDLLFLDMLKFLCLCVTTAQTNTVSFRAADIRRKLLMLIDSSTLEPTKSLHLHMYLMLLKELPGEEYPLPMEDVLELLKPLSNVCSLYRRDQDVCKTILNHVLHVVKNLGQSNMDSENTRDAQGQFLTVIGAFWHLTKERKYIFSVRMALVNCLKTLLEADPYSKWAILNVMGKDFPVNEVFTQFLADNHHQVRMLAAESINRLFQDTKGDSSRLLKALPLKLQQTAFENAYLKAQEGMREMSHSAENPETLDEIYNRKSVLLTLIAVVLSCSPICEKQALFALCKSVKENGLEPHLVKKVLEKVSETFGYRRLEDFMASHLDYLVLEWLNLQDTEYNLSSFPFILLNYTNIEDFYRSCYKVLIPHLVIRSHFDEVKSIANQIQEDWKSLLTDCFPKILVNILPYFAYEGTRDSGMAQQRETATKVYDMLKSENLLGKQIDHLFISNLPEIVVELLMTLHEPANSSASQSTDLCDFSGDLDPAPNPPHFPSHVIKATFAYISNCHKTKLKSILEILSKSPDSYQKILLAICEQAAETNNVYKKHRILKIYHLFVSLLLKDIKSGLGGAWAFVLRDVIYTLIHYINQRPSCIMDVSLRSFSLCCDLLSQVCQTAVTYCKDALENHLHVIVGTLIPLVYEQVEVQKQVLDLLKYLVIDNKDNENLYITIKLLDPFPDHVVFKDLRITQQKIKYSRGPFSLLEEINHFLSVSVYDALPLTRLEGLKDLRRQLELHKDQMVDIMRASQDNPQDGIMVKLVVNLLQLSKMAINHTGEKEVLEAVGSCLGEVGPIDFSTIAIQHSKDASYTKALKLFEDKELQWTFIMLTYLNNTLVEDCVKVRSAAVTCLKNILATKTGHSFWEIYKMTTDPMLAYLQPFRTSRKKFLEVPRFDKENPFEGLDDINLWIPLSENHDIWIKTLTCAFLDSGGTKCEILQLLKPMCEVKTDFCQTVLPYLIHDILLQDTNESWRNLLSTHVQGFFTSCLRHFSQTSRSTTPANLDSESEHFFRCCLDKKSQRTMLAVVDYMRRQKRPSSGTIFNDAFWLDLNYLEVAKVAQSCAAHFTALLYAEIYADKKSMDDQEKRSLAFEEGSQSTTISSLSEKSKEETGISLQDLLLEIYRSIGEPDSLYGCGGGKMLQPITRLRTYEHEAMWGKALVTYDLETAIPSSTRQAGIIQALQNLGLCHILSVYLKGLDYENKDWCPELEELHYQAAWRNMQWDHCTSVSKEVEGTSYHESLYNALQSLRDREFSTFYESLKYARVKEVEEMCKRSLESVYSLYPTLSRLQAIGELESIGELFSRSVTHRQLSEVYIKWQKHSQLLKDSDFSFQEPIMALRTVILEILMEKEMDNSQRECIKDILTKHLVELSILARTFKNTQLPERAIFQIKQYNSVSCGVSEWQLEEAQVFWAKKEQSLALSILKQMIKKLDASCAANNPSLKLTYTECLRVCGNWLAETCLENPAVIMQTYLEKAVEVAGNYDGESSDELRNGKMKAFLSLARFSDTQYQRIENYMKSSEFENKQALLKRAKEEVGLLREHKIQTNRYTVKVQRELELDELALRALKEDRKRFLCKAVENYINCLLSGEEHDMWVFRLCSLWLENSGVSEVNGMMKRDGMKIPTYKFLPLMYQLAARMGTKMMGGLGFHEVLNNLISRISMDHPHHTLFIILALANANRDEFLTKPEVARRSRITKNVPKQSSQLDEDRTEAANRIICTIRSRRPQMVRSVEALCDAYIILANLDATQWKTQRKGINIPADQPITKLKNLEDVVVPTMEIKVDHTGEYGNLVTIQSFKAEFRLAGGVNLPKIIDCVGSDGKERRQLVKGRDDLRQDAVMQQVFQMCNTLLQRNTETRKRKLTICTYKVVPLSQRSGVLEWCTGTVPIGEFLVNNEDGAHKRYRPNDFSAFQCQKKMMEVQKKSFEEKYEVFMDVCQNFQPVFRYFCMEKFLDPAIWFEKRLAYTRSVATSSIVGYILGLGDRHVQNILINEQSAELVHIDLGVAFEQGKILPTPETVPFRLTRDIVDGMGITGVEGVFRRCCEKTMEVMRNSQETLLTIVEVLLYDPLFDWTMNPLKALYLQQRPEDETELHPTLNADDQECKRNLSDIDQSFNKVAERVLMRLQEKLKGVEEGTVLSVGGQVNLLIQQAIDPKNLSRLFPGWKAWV

Compound | IC50 (human ATM) [nM] | IC50 [1] [nM] | IC50 [2] [nM] | solubility (Solubility in DMSO) [mM]
COCCn1c(=O)n(C)c2cnc3ccc(-c4ccc(NC(=O)NCCN(C)C)c(F)c4)cc3c21 [Ex. 28, 1-(2-(Dimethylamino)ethyl)-3-(2-fluoro-4-(1-(2-methoxyethyl)-3-methyl-2-oxo-2,3-dihydro-1H-imidazo[4,5-c]quinolin-8-yl)phenyl)urea] | < 1 | 2000 | 1 | 
CN(C)CCNC(=O)Nc1ccc(-c2ccc3ncc4c(c3c2)n(C2CCOCC2)c(=O)n4C)cn1 [Ex. 7, 1-(2-(Dimethylamino)ethyl)-3-(5-(3-methyl-2-oxo-1-(tetrahydro-2H-pyran-4-yl)-2,3-dihydro-H-imidazo[4,5-c]quinolin-8-yl)pyridin-2-yl)urea] | < 1 | 2500 |  | < 10
COCCn1c(=O)n(C)c2cnc3ccc(-c4ccc(NC(=O)NC5CCCN(C)C5)cc4)cc3c21 (centres unmarked) [Ex. 17, 1-(4-(1-(2-Methoxyethyl)-3-methyl-2-oxo-2,3-dihydro-1H-imidazo[4,5-c]quinolin-8-yl)phenyl)-3-(1-methylpiperidin-3-yl)urea] | < 1 |  | 4 | 

Continued, values first:

IC50 (human ATM) [nM] | IC50 [1] [nM] | IC50 [2] [nM] | solubility (Solubility in DMSO) [mM] | Compound
< 1 | 4790 | 1 |  | COCCn1c(=O)n(C)c2cnc3ccc(-c4ccc(NC(=O)NCCN(C)C)cc4F)cc3c21 [Ex. 27, 1-(2-(Dimethylamino)ethyl)-3-(3-fluoro-4-(1-(2-methoxyethyl)-3-methyl-2-oxo-2,3-dihydro-1H-imidazo[4,5-c]quinolin-8-yl)phenyl)urea]
< 1 | 9930 | 9 |  | COCCn1c(=O)n(C)c2cnc3ccc(-c4ccc(NC(=O)NC5CCN(C)C5)cc4)cc3c21 (centres unmarked) [Ex. 19, 1-(4-(1-(2-Methoxyethyl)-3-methyl-2-oxo-2,3-dihydro-1H-imidazo[4,5-c]quinolin-8-yl)phenyl)-3-(1-methylpyrrolidin-3-yl)urea]

Reference: patent US20230348462A1, “IMIDAZO[4,5-C]QUINOLINE COMPOUNDS AND THEIR USE AS ATM KINASE INHIBITORS” (Deutsches Krebsforschungszentrum, priority 2020, published 2023)
